Reference: PMC6900491, “The LRRC8 volume‐regulated anion channel inhibitor, DCPIB, inhibits mitochondrial respiration independently of the channel” (Physiological Reports, 2019)

Target: T1, LRRC8A (volume-regulated anion channel, VRAC) (Homo sapiens, UniProt Q8IWT6)
T1 construct: endogenous VRAC in WT HAP-1 and HEK-293 cells (current absent in LRRC8A-KO cells); with at least one other LRRC8 subunit (LRRC8B, C, D or E)
T1 sequence (Q8IWT6 1-810): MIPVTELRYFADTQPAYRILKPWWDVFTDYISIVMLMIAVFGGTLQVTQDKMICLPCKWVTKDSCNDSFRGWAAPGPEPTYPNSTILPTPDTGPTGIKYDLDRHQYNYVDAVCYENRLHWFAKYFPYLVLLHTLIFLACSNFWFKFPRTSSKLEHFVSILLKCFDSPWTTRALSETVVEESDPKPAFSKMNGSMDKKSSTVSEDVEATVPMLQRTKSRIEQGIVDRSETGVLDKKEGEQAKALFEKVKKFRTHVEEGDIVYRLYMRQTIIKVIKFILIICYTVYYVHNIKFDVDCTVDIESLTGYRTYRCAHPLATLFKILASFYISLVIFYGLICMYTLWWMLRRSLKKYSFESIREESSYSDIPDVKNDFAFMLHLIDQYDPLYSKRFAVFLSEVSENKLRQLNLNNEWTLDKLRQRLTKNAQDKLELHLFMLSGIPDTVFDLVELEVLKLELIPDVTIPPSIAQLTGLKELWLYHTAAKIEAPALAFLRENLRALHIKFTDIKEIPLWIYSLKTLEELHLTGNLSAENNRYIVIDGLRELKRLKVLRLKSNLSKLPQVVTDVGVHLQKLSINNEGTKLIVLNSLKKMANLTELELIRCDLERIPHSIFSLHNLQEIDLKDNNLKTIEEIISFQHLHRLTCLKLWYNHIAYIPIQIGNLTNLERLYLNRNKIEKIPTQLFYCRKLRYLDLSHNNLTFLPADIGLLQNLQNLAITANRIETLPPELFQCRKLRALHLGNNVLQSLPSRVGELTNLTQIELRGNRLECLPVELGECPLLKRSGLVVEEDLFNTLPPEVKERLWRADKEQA
Assay: whole-cell patch clamp of swelling-induced anion current, WT vs LRRC8A-KO cells
Assay type: cell-based

CCCCC1(C2CCCC2)Cc2cc(OCCCC(=O)O)c(Cl)c(Cl)c2C1=O (stereo not shown) [DCPIB, 4‐(2‐butyl‐6,7‐dichloro‐2‐cyclopentylindan‐1‐on‐5‐yl) oxybutyric acid]
whole-cell patch clamp of swelling-induced anion current, WT vs LRRC8A-KO cells: 10 µM
